According to PubChem BioAssay (NCI):
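96-well plates; 48 h exposure; 5 concentrations. Endpoints by linear interpolation between flanking doses. Not reached: highest tested concentration assigned. At the TGI there is no net growth.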

Columns and labels:
Assay in all cases: inhibition of tumour cell growth, NCI panel, 48 h
786-0 renal = test system: 786-0 renal
A498 renal = test system: A498 renal
A549 NSCLC = test system: A549 NSCLC
ACHN renal = test system: ACHN renal
BT-549 breast = test system: BT-549 breast
CAKI-1 renal = test system: CAKI-1 renal
CCRF-CEM leukemia = test system: CCRF-CEM leukemia
COLO 205 colon = test system: COLO 205 colon
DU-145 prostate = test system: DU-145 prostate
EKVX NSCLC = test system: EKVX NSCLC
HCC-2998 colon = test system: HCC-2998 colon
HCT-116 colon = test system: HCT-116 colon
HCT-15 colon = test system: HCT-15 colon
HL-60(TB) leukemia = test system: HL-60(TB) leukemia
HOP-62 NSCLC = test system: HOP-62 NSCLC
HOP-92 NSCLC = test system: HOP-92 NSCLC
HS 578T breast = test system: HS 578T breast
HT29 colon = test system: HT29 colon
IGROV1 ovarian = test system: IGROV1 ovarian
K-562 leukemia = test system: K-562 leukemia
KM12 colon = test system: KM12 colon
LOX IMVI melanoma = test system: LOX IMVI melanoma
M14 melanoma = test system: M14 melanoma
MALME-3M melanoma = test system: MALME-3M melanoma
MCF7 breast = test system: MCF7 breast
MDA-MB-231 breast = test system: MDA-MB-231 breast
MDA-MB-435 = test system: MDA-MB-435
MDA-N = test system: MDA-N
MOLT-4 leukemia = test system: MOLT-4 leukemia
NCI-H226 lung = test system: NCI-H226 lung
NCI-H23 lung = test system: NCI-H23 lung
NCI-H460 lung = test system: NCI-H460 lung
NCI-H522 lung = test system: NCI-H522 lung
NCI/ADR-RES ovarian = test system: NCI/ADR-RES ovarian
OVCAR-3 ovarian = test system: OVCAR-3 ovarian
OVCAR-4 ovarian = test system: OVCAR-4 ovarian
OVCAR-5 ovarian = test system: OVCAR-5 ovarian
OVCAR-8 ovarian = test system: OVCAR-8 ovarian
PC-3 prostate = test system: PC-3 prostate
RPMI-8226 leukemia = test system: RPMI-8226 leukemia
SF-268 CNS = test system: SF-268 CNS
SF-295 CNS = test system: SF-295 CNS
SF-539 CNS = test system: SF-539 CNS
SK-MEL-2 melanoma = test system: SK-MEL-2 melanoma
SK-MEL-28 melanoma = test system: SK-MEL-28 melanoma
SK-MEL-5 melanoma = test system: SK-MEL-5 melanoma
SK-OV-3 ovarian = test system: SK-OV-3 ovarian
SN12C renal = test system: SN12C renal
SNB-19 CNS = test system: SNB-19 CNS
SNB-75 CNS = test system: SNB-75 CNS
SW-620 colon = test system: SW-620 colon
T-47D breast = test system: T-47D breast
TK-10 renal = test system: TK-10 renal
U251 CNS = test system: U251 CNS
UACC-257 melanoma = test system: UACC-257 melanoma
UACC-62 melanoma = test system: UACC-62 melanoma
UO-31 renal = test system: UO-31 renal
RXF 393 renal = test system: RXF 393 renal
SR leukemia = test system: SR leukemia

Fc1ccc(C(OCCN2CCC3CCC(C2)N3CCCc2ccccc2)c2ccc(F)cc2)cc1 (stereo unspecified)
TGI (786-0 renal): 5.57 µM
TGI (A498 renal): 11.8 µM
TGI (A549 NSCLC): 19.4 µM
TGI (ACHN renal): 18.2 µM
TGI (BT-549 breast): 21.1 µM
TGI (CAKI-1 renal): 18.3 µM
TGI (CCRF-CEM leukemia): 11.3 µM
TGI (COLO 205 colon): 2.67 µM
TGI (DU-145 prostate): 22.8 µM
TGI (EKVX NSCLC): 15.2 µM
TGI (HCC-2998 colon): 4.05 µM
TGI (HCT-116 colon): 10.6 µM
TGI (HCT-15 colon): 14.5 µM
TGI (HL-60(TB) leukemia): 5.21 µM
TGI (HOP-62 NSCLC): 23.3 µM
TGI (HOP-92 NSCLC): 18.9 µM
TGI (HS 578T breast): 19.7 µM
TGI (HT29 colon): 13.7 µM
TGI (IGROV1 ovarian): 17.7 µM
TGI (K-562 leukemia): 5.8 µM
TGI (KM12 colon): 11.3 µM
TGI (LOX IMVI melanoma): 13.8 µM
TGI (M14 melanoma): 4.76 µM
TGI (MALME-3M melanoma): 5.46 µM
TGI (MCF7 breast): 13 µM
TGI (MDA-MB-231 breast): 13.6 µM
TGI (MDA-MB-435): 7.46 µM
TGI (MDA-N): 11.3 µM
TGI (MOLT-4 leukemia): 7.86 µM
TGI (NCI-H226 lung): 15.1 µM
TGI (NCI-H23 lung): 15 µM
TGI (NCI-H460 lung): 7.51 µM
TGI (NCI-H522 lung): 12.1 µM
TGI (NCI/ADR-RES ovarian): 13.7 µM
TGI (OVCAR-3 ovarian): 14.8 µM
TGI (OVCAR-4 ovarian): 22.3 µM
TGI (OVCAR-5 ovarian): 20.3 µM
TGI (OVCAR-8 ovarian): 4.93 µM
TGI (PC-3 prostate): 11.4 µM
TGI (RPMI-8226 leukemia): 5.11 µM
TGI (SF-268 CNS): 19.8 µM
TGI (SF-295 CNS): 8.45 µM
TGI (SF-539 CNS): 2.82 µM
TGI (SK-MEL-2 melanoma): 14 µM
TGI (SK-MEL-28 melanoma): 6.53 µM
TGI (SK-MEL-5 melanoma): 3.22 µM
TGI (SK-OV-3 ovarian): 24.8 µM
TGI (SN12C renal): 12.7 µM
TGI (SNB-19 CNS): 22.3 µM
TGI (SNB-75 CNS): 10.3 µM
TGI (SW-620 colon): 19.9 µM
TGI (T-47D breast): 4.79 µM
TGI (TK-10 renal): 15.7 µM
TGI (U251 CNS): 15.1 µM
TGI (UACC-257 melanoma): 8.93 µM
TGI (UACC-62 melanoma): 18.2 µM
TGI (UO-31 renal): 16.3 µM

CSc1nc(=S)[nH]c2n[nH]c(C)c12
TGI (786-0 renal): > 100 µM
TGI (A498 renal): > 100 µM
TGI (A549 NSCLC): > 100 µM
TGI (BT-549 breast): > 100 µM
TGI (CAKI-1 renal): > 100 µM
TGI (CCRF-CEM leukemia): > 100 µM
TGI (COLO 205 colon): > 100 µM
TGI (DU-145 prostate): > 100 µM
TGI (EKVX NSCLC): > 100 µM
TGI (HCC-2998 colon): > 100 µM
TGI (HCT-116 colon): > 100 µM
TGI (HCT-15 colon): > 100 µM
TGI (HL-60(TB) leukemia): > 100 µM
TGI (HS 578T breast): > 100 µM
TGI (HT29 colon): > 100 µM
TGI (K-562 leukemia): > 100 µM
TGI (KM12 colon): > 100 µM
TGI (LOX IMVI melanoma): > 100 µM
TGI (M14 melanoma): > 100 µM
TGI (MALME-3M melanoma): > 100 µM
TGI (MCF7 breast): > 100 µM
TGI (MDA-MB-231 breast): > 100 µM
TGI (MDA-MB-435): > 100 µM
TGI (MDA-N): > 100 µM
TGI (MOLT-4 leukemia): > 100 µM
TGI (NCI-H226 lung): > 100 µM
TGI (NCI-H23 lung): > 100 µM
TGI (NCI-H460 lung): > 100 µM
TGI (NCI-H522 lung): > 100 µM
TGI (NCI/ADR-RES ovarian): > 100 µM
TGI (OVCAR-3 ovarian): > 100 µM
TGI (OVCAR-4 ovarian): > 100 µM
TGI (OVCAR-5 ovarian): > 100 µM
TGI (OVCAR-8 ovarian): > 100 µM
TGI (PC-3 prostate): > 100 µM
TGI (RPMI-8226 leukemia): > 100 µM
TGI (RXF 393 renal): > 100 µM
TGI (SF-268 CNS): > 100 µM
TGI (SF-539 CNS): > 100 µM
TGI (SK-MEL-2 melanoma): > 100 µM
TGI (SK-MEL-28 melanoma): > 100 µM
TGI (SK-MEL-5 melanoma): > 100 µM
TGI (SK-OV-3 ovarian): > 100 µM
TGI (SN12C renal): > 100 µM
TGI (SNB-19 CNS): > 100 µM
TGI (SNB-75 CNS): > 100 µM
TGI (SR leukemia): > 100 µM
TGI (SW-620 colon): > 100 µM
TGI (T-47D breast): > 100 µM
TGI (TK-10 renal): > 100 µM
TGI (U251 CNS): > 100 µM
TGI (UACC-257 melanoma): > 100 µM
TGI (UACC-62 melanoma): > 100 µM
TGI (UO-31 renal): > 100 µM
